Laboratory results published in publication PMC4979471 (Cell Death Discovery, 2015).
Where two headings read alike, the source gives them in different places.

Columns and labels:
Assay in all cases: Kinase selectivity, P33-radiolabeled assay
Type in all cases: biochemical
Conditions in all cases: 10 μM ATP
IKKe/IKBKE = biological target: T1, IKKe/IKBKE (Homo sapiens, UniProt Q14164)
T1 construct: purchased Reaction Biology Corp
T1 sequence (Q14164 1-716): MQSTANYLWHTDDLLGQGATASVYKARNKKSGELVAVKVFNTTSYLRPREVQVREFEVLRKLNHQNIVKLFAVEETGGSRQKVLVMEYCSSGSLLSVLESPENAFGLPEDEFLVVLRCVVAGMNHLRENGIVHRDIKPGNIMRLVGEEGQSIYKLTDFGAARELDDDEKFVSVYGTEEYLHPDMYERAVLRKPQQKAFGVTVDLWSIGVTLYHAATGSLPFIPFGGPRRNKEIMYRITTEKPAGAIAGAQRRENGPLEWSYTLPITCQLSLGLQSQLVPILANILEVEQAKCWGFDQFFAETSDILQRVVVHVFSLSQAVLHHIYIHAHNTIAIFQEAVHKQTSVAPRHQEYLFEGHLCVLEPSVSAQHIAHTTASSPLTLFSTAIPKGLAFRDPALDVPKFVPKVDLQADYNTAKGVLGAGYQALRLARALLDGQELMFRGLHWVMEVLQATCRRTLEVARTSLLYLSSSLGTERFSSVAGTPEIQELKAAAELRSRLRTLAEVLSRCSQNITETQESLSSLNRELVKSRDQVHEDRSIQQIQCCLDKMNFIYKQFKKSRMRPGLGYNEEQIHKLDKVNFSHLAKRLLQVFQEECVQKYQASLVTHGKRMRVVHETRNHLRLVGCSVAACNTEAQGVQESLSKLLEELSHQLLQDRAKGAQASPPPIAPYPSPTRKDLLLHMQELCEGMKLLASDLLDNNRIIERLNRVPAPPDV
Description: (§1) The compound was tested at a single dose in duplicate at 10 μM. Reactions were carried out at 10 μM ATP. Data are reported as % enzyme activity (relative to DMSO controls). The full data set is shown in the Supplementary Table I.

NLK = biological target: T2, NLK (Homo sapiens, UniProt Q9UBE8)
T2 construct: purchased Reaction Biology Corp
T2 sequence (Q9UBE8 1-527): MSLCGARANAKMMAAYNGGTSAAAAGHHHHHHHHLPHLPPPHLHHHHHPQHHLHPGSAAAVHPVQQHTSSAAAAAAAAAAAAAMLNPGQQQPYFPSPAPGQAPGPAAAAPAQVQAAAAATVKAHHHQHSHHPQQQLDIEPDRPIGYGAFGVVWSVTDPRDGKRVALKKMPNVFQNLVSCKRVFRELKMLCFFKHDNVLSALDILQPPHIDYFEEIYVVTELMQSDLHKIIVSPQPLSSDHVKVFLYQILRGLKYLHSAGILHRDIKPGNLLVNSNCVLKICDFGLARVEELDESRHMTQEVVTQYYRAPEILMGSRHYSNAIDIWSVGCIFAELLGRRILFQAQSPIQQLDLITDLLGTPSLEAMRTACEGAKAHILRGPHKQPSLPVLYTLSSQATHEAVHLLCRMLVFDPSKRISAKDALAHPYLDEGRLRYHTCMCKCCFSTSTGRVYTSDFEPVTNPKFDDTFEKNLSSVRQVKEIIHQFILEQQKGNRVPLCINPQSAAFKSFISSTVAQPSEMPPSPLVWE
Description: as §1

DAPK1 = biological target: T3, DAPK1 (Homo sapiens, UniProt P53355)
T3 construct: purchased Reaction Biology Corp
T3 sequence (P53355 whole entry): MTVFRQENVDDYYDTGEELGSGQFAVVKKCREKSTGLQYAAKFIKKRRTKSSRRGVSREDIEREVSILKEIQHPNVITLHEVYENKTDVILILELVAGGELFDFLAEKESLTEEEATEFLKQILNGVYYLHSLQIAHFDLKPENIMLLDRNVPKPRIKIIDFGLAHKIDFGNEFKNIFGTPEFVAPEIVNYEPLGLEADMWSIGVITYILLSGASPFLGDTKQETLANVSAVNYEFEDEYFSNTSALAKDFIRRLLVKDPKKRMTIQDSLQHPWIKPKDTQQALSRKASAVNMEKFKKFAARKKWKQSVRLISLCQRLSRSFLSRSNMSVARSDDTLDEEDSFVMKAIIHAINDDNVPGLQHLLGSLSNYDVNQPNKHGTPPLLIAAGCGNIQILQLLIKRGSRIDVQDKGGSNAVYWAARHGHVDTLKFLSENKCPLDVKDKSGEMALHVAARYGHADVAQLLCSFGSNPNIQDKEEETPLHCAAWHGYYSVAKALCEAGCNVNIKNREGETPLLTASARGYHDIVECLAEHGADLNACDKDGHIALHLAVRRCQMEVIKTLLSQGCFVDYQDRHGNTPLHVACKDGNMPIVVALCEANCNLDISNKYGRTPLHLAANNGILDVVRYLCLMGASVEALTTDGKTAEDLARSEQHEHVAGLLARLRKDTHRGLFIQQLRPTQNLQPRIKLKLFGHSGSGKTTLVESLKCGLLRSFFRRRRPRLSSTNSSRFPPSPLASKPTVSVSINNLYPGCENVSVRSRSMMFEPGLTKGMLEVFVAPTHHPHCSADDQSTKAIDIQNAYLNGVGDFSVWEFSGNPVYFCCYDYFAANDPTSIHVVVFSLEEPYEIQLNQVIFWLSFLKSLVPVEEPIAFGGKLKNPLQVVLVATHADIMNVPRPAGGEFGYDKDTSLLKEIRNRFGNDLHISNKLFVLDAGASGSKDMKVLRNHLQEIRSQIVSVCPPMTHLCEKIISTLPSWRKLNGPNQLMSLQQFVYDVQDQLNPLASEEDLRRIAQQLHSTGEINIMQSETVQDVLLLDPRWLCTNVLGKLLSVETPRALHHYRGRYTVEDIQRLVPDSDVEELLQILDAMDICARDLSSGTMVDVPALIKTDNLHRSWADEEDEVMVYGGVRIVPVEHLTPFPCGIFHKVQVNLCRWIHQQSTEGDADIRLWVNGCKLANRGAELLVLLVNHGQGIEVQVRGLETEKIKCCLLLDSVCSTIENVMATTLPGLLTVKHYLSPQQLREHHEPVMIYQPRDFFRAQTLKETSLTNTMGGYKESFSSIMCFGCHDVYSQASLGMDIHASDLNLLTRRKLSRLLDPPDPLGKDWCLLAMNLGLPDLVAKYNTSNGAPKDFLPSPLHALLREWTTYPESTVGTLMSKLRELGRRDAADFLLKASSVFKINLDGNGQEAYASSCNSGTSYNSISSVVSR
Description: as §1

MSK2/RPS6KA4 = biological target: T4, MSK2/RPS6KA4 (Homo sapiens, UniProt O75676)
T4 construct: purchased Reaction Biology Corp
T4 sequence (O75676 whole entry): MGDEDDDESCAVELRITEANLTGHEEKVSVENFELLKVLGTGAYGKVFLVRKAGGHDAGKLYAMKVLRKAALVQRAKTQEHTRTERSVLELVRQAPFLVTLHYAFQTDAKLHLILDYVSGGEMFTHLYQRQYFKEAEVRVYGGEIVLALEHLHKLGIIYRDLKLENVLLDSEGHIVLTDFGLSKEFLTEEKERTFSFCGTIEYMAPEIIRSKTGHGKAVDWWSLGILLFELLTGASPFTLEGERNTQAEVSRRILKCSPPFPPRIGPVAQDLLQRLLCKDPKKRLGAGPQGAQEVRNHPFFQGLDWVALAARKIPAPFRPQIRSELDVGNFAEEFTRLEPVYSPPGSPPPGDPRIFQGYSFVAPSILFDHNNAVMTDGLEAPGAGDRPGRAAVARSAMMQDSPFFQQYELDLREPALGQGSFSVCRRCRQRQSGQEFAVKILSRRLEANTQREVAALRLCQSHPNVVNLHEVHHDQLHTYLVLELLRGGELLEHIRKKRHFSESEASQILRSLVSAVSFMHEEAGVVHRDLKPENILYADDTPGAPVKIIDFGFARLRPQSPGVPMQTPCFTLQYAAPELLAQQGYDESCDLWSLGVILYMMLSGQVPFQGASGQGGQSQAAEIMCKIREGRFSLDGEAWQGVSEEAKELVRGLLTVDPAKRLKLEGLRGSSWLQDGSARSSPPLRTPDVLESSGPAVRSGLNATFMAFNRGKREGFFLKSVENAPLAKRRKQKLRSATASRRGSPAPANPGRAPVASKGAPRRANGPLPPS
Description: as §1

FLT1/VEGFR1 = biological target: T5, FLT1/VEGFR1 (Homo sapiens, UniProt P17948)
T5 construct: purchased Reaction Biology Corp
T5 sequence (P17948 27-1338): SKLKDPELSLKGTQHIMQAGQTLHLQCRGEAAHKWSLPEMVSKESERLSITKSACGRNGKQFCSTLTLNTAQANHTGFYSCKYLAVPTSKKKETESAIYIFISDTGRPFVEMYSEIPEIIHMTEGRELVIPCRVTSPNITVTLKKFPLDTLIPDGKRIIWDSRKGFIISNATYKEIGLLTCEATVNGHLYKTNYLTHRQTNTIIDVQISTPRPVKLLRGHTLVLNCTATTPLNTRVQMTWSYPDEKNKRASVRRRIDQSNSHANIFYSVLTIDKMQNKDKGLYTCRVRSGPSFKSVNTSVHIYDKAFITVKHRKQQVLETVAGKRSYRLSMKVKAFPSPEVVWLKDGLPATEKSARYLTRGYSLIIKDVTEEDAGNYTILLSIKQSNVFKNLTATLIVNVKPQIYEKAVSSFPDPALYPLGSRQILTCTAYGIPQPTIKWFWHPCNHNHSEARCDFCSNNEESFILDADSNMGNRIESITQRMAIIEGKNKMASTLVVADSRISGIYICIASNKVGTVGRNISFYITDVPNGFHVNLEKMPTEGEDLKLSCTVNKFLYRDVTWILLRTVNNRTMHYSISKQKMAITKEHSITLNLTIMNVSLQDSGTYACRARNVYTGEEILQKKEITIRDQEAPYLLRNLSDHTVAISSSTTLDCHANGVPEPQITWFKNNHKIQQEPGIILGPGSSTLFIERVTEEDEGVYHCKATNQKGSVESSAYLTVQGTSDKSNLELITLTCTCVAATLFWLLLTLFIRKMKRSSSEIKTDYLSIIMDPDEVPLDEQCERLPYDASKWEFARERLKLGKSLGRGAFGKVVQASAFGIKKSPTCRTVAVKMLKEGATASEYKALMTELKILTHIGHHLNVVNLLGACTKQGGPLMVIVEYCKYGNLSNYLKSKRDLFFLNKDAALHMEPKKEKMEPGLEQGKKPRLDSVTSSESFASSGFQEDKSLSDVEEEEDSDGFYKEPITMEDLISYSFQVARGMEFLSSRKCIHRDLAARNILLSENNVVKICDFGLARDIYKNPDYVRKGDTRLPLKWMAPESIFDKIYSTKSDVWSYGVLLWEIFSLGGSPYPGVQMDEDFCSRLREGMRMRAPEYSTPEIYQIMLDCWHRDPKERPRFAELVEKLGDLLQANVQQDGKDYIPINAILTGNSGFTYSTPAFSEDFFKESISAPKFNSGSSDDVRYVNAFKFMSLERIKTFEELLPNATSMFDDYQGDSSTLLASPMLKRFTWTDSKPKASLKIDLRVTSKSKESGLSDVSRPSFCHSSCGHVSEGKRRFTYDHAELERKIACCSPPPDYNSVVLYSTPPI
Description: as §1

RIPK3 = biological target: T6, RIPK3 (Homo sapiens, UniProt Q9Y572)
T6 construct: purchased Reaction Biology Corp
T6 sequence (Q9Y572 whole entry): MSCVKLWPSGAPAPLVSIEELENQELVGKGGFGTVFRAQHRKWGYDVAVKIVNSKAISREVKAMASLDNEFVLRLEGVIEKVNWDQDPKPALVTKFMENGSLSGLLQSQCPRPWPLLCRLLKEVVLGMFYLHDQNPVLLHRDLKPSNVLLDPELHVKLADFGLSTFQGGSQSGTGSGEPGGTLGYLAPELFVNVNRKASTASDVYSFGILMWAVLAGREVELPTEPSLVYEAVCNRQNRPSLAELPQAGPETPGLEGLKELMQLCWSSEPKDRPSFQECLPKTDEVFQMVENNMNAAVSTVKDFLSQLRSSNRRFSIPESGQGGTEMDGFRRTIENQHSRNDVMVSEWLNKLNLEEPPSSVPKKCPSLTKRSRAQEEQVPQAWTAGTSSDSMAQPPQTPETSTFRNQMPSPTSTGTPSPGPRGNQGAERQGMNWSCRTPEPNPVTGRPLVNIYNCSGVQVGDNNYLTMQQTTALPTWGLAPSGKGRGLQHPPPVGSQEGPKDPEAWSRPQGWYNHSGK
Description: as §1

STK38L/NDR2 = biological target: T7, STK38L/NDR2 (Homo sapiens, UniProt Q9Y2H1)
T7 construct: purchased Reaction Biology Corp
T7 sequence (Q9Y2H1 whole entry): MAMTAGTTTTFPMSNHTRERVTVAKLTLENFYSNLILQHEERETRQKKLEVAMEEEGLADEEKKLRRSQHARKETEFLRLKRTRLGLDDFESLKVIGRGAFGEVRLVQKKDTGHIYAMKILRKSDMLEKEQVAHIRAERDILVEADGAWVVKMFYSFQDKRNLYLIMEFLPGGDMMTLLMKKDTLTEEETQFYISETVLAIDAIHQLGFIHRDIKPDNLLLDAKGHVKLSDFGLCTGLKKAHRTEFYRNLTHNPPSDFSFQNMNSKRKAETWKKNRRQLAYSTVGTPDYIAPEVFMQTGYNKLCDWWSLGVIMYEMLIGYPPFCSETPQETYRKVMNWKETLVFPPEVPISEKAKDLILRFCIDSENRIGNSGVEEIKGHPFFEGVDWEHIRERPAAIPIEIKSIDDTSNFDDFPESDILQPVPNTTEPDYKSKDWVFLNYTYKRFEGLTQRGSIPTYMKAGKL
Description: as §1

CLK1 = biological target: T8, CLK1 (Homo sapiens, UniProt P49759)
T8 construct: purchased Reaction Biology Corp
T8 sequence (P49759 whole entry): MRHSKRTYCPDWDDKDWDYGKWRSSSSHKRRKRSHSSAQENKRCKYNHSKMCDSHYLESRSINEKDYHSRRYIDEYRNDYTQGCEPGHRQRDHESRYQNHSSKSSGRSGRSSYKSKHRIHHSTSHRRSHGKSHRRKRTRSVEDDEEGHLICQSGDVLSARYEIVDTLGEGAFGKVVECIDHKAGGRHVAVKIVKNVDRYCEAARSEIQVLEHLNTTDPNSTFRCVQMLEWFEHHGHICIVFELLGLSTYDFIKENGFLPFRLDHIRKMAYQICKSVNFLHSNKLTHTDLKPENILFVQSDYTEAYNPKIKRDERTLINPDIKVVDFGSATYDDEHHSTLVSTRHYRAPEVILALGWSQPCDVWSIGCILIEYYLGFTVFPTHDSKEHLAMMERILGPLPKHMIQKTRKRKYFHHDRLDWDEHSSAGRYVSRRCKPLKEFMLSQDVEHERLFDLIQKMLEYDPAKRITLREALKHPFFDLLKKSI
Description: as §1

MEK3 = biological target: T9, MEK3 (Homo sapiens, UniProt P46734)
T9 construct: purchased Reaction Biology Corp
T9 sequence (P46734 1-347): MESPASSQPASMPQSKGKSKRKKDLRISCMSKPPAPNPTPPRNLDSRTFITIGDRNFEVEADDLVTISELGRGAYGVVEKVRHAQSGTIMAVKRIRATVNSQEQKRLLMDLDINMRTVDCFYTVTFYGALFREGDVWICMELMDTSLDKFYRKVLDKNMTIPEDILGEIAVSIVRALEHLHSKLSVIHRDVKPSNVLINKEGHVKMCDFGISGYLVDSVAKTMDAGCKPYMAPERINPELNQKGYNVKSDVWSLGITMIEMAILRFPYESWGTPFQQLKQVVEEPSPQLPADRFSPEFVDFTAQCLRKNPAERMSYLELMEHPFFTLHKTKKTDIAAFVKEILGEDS
Description: as §1

CDK2/cyclin A = biological target: T10, CDK2/cyclin A (Homo sapiens, UniProt P24941)
T10 construct: purchased Reaction Biology Corp
Description: as §1

[1] = read-out: % Enzyme Activity (relative to DMSO controls) AVG
[2] = read-out: % Enzyme Activity (relative to DMSO controls) Data 1
[3] = read-out: % Enzyme Activity (relative to DMSO controls) Data 2

Work on `CC(C)(C)C(=O)N1N=CC[C@H]1c1ccccc1` [GSK′963] yielded a remaining activity at 10 µM (IKKe/IKBKE; [1]) of 70%, a remaining activity at 10 µM (IKKe/IKBKE; [2]) of 68.1% and a remaining activity at 10 µM (IKKe/IKBKE; [3]) of 71.8%. For the same molecule, the remaining activity at 10 µM (NLK; [1]) was 112%, the remaining activity at 10 µM (NLK; [2]) was 111% and the remaining activity at 10 µM (NLK; [3]) was 112%. For the same molecule, the remaining activity at 10 µM (DAPK1; [1]) was 70.8%, the remaining activity at 10 µM (DAPK1; [2]) was 72.5% and the remaining activity at 10 µM (DAPK1; [3]) was 69.2%. It also gave a remaining activity at 10 µM (MSK2/RPS6KA4; [1]) of 104%, a remaining activity at 10 µM (MSK2/RPS6KA4; [2]) of 104% and a remaining activity at 10 µM (MSK2/RPS6KA4; [3]) of 103%. The remaining activity at 10 µM (FLT1/VEGFR1; [1]) was 107%, the remaining activity at 10 µM (FLT1/VEGFR1; [2]) was 106% and the remaining activity at 10 µM (FLT1/VEGFR1; [3]) was 107%. For the same molecule, the remaining activity at 10 µM (RIPK3; [1]) was 99.3%, the remaining activity at 10 µM (RIPK3; [2]) was 100% and the remaining activity at 10 µM (RIPK3; [3]) was 98.7%. The remaining activity at 10 µM (STK38L/NDR2; [1]) was 99.8%, the remaining activity at 10 µM (STK38L/NDR2; [2]) was 101% and the remaining activity at 10 µM (STK38L/NDR2; [3]) was 98.1%. It also gave a remaining activity at 10 µM (CLK1; [1]) of 107%, a remaining activity at 10 µM (CLK1; [2]) of 108% and a remaining activity at 10 µM (CLK1; [3]) of 106%. It also gave a remaining activity at 10 µM (MEK3; [1]) of 108%, a remaining activity at 10 µM (MEK3; [2]) of 103% and a remaining activity at 10 µM (MEK3; [3]) of 113%. The remaining activity at 10 µM (CDK2/cyclin A; [1]) was 93.6%, the remaining activity at 10 µM (CDK2/cyclin A; [2]) was 95.3% and the remaining activity at 10 µM (CDK2/cyclin A; [3]) was 92%.
